Data as given in patent US4786639A, “Method for the treatment of reversible airways obstruction and asthma” (Beecham Group p.l.c., priority 1984, dated 1988).
In brackets after ≈: the same amount, converted by molar mass. Like-named read-outs stand apart in the source and are kept apart here.

Legend:
Rat isolated portal vein = assay: Rat isolated portal vein: inhibition of spontaneous contractions and of contractions due to added calcium; design: species or system rat (male Sprague Dawley); conditions: for IC50: Rattus norvegicus, 0.25 h, 15 min contact time, 6-9 tissues, 95% fiducial limits in next line
Procedure: (1) Rat isolated portal vein. Male Sprague Dawley rats (250-350 g) were killed by cervical dislocation. Portal veins (2-3cm in length) were set up under 0.8-1 g tension in a 10 ml organ bath containing Krebs-Henseleit solution, at 37° C., of the following composition (mM): NaCl 118, NaHCO3 25, glucose 5, KH2 PO4 1.18, KCl 4.69, MgSO4 0.59, CaCl2.H2 O 1.87. The tissue was aerated with a 95% oxygen and 5% carbon dioxide mixture. Isometric tension was recorded using a Devices strain gauge and recorder. Each preparation was allowed 1h to equilibrate before the addition of test compound. The ability of a compound to inhibit the contractions due to added calcium (3 mM CaCl2) was determined in tissues bathed in Krebs-Henseleit solution containing 0.05 mM CaCl2 (in order to reduce spontaneous contractions). Then percentage inhibition (mean ±s.e.m.; 6-9 tissues) of the amplitude of the spontaneous contractions, and contractions due to added calcium, was determined after 15 min contact time with test compound.
(1) Rat Isolated Portal Vein: effect of compound 1 on spontaneous contractions and those due to added calcium.
IC50 is concentration of compound reducing contractions by 50%; parenthesis indicate 95% fiducial limits.

conscious guinea-pig = assay: Guinea pig asphyxic collapse model in vivo (histamine aerosol); design: species or system guinea pig (female Dunkin-Hartley); conditions: 5 mg/kg p.o., 30 min pretreatment, control 90 ± 10
Text: This model is based on the method described by Herxheimer (Br.J.Pharm.50, 314 (1974)]. Conscious female guinea pigs (Dunkin-Hartley strain, 500-700 g body weight) were placed individually into a Perspex chamber of approximately 8 litres capacity, and the animals were challenged with an histamine aerosol. The standard histamine aerosol was generated using a Monaghan 675 ultrasonic nebulizer (power setting 7) from a 5×10^-5 m solution of histamine acid phosphate in distilled water. After obtaining satisfactory aerosol generation, the aerosol was passed into the chamber for 10 seconds and the time was recorded from introduction of the aerosol until the guinea pig collapsed (termed asphyxic collapse). The animal was rapidly removed and allowed to recover. In this way, the mean time to asphyxic collapse for a group of guinea pigs was determined.
Compounds were administered orally to groups of animals and the degree of protection against histamine-induced asphyxic collapse was determined by the percentage increase in mean time to asphyxic collapse of a compound-treated group to asphyxic collapse for control groups was around 80-100 seconds. […]
The significance of any increase in the mean asphyxic collapse time of a compound-treated group of animals over that of a vehicle-treated control group was determined using students "t" test. […]

Rat isolated colon = assay: Rat isolated colon: inhibition of spontaneous contractions; design: species or system rat (male Wister); conditions: 10 min, cumulative dosing at 10 min intervals, graphically determined, read-out: ID50 (concentration reducing amplitude of spontaneous contractions by 50%)
Procedure: Rat isolated colon. Male Wister rats (Charles River U.K.) were killed by a blow on the head and a 2 cm segment of proximal colon excised. After gently washing free any luminal contents the tissue was suspended longitudinally in a 10 ml organ bath containing Krebs solution of the following composition: NaCl 118.1 mM, KH2 PO4 1.18 mM, NaHCO3 25 mM, KCl 4.69 mM, MgSO4 1.64 mM, CaCl2 2.52 mM, Glucose 11.1 mM. This solution was maintained at 37° C. and constantly bubbled with 95% O2 : 5% CO2. Isometric contractions were recorded from the tissue with an initial tension of 1 g being applied.
The inhibitory effects of compounds 1+2 were assessed from the reduction in amplitude of the spontaneous contractions of the colon. Cumulative dose-response curves were constructed with the compounds being applied to the bath at intervals of 10 mins. ID50 (concentration of drug reducing amplitude of contractions by 50%) was graphically determined from the dose-response curve.
Rat isolated colon : effect of compounds 1 and 2 on spontaneous contractions

[1] = system: potassium depolarised rat uterus; assay: Relaxation of potassium depolarised rat uterus; design: species or system rat (female Sprague Dawley); conditions: 7 preparations, relative to full relaxation with isoprenaline, read-out: % maximum relaxation
Procedure: Relaxation of Potassium Depolarised Rat Uterus
Female Sprague Dawley rats (120-160 g) were sacrificed and the uterine horns removed. Each horn was cut longitudinally to give a sheet of muscle which was further subdivided to give two preparations (i.e. 4 from each animal). Each tissue was mounted in a 10 ml organ bath containing normal Krebs buffer at 32° C. and gassed with 95% O2 -5% CO2. During an equilibration period of approximately 45 min the tissues were repeatedly stretched and washed to maintain a resting tension of 0.2 g. An increase in tension was induced by exchanging the Krebs buffer for one in which the sodium ions were replaced by the equivalent amount of potassium ions.
This caused the tissues to contract followed by a slow relaxation which equilibrated at a level above the initial resting level. A cumulative concentration effect curve to compound 1 was then carried out until the response to the final bath concentration (10^-4 M) had stabilised. Incremental concentrations of isoprenaline were then added until the tissues had fully relaxed. Results are expressed as a percentage of this maximum relaxation.
7 preparations were used.

[2] = system: Rabbit isolated mesenteric artery; assay: Rabbit isolated mesenteric artery: relaxation of contractions due to KCl; design: species or system rabbit (male New Zealand White); conditions: for IC50: Oryctolagus cuniculus, 4-9 tissues
Procedure: (2) Rabbit isolated mesenteric artery. Mesenteric arteries (3 mm rings) were removed from male New Zealand White rabbits and mounted, at a resting tension of 1.5-2.0 g, in a 10 ml organ bath containing a Ringer solution, at 37° C., of the following composition (mM): NaCl 120.8; KCl 5.9; CaCl2 2.5; MgCl2 1.2; HEPES 5.8; glucose 11.5. The bathing solution was bubbled with a 95% oxygen and 5% carbon dioxide mixture. Each preparation was allowed 1-11/2 h to equilibrate before the addition of either 30 or 90 mM KCl to contract the tissue. The ability of test compound to relax the sustained contraction due to KCl was determined by assessing the % reduction (mean ±s.e.m.; 4-9 tissues) produced by varying concentrations of test compound.
(2) Rabbit Isolated Mesenteric Artery: effect of compound 1 on contractions due to 30 and 90 mM KCl.
IC50 is the concentration of compound 1 halving the contraction due to KCl; parenthesis indicate 95% fiducial limits.

For `CC1(C)Oc2ccc(C#N)cc2[C@@H](N2CCCC2=O)[C@@H]1O` (relative stereo) [Compound 1, 6-cyano-3,4-dihydro-2,2-dimethyl-trans-4-(2-oxo-1-pyrrolidinyl)-2H-benzo[b]pyran-3-ol], which IC50 (Rat isolated portal vein; contractions due to added calcium (3 mM CaCl2), read-out: IC50 Ca^2+ (3 mM) contractions) is on record?
Its IC50 is 150 nM.

What about the IC50 (Rat isolated portal vein; spontaneous contractions, read-out: IC50 Spontaneous contractions) of the same compound?
Its IC50 is 120 nM.

What about the “relative potency, spontaneous contractions vs those due to added calcium” value (Rat isolated portal vein; spontaneous contractions and those due to added calcium) of the same compound?
The value was “equipotent”.

And the Mean collapse time (conscious guinea-pig; N=5, *p < 0.05)?
The Mean collapse time was 154 ± 26 s.

What about the IC50 (Rat isolated colon) of the same compound?
Its IC50 is 0.12 µg/mL (≈ 0.419 µM).

And the activation at 100 µM ([1]; 1 × 10^-4 M)?
Its activation at 100 µM is 61 ± 6%.

What about the activation at 10 µM ([1]; 1 × 10^-5 M) of the same compound?
Its activation at 10 µM is 18 ± 3%.

And the activation at 30 µM ([1]; 3 × 10^-5 M)?
Its activation at 30 µM is 31 ± 3%.

And the activation at 3 µM ([1]; 3 × 10^-6 M)?
The activation at 3 µM was 6 ± 2%.

What about the IC50 ([2]; 30 mM KCl, 95% fiducial limits in next line, read-out: IC50 30 mM KCl contraction) of the same compound?
Its IC50 is 510 nM.

What about the IC50 ([2]; 90 mM KCl, read-out: IC50 90 mM KCl contraction) of the same compound?
Its IC50 is greater than 10000 nM.

What about the “effect against a high concentration of KCl” value ([2]; high concentration of KCl) of the same compound?
The value was “effectiveness of compound 1 against a high concentration of KCl”.

And the “antagonism of contractions due to potassium” value ([2]; partially (low KCl) vs fully (high KCl) depolarising concentration)?
Its value is “antagonises the contractions due to a partially, but not a fully, depolarising concentration of potassium”.

With `CC1(C)Oc2ccc(Cl)cc2[C@@H](N2CCCC2=O)[C@@H]1O` (relative stereo) [Compound 2, 6-chloro-3,4-dihydro-2,2-dimethyl-trans-4-(2-oxo-1-pyrrolidinyl)-2H-benzo[b]pyran-3-ol] as the compound, how does the IC50 (Rat isolated colon) read?
The IC50 was 1.7 µg/mL (≈ 5.75 µM).

`CCN(C(C)=O)[C@@H]1c2cc(C#N)ccc2OC(C)(C)[C@H]1O` (relative stereo) [Compound 4, trans-4-(N-acetyl)-ethylamino-6-cyano-3,4-dihydro-2,2-dimethyl-2H-benzo[b]pyran-3-ol] was tested. Which Mean collapse time (conscious guinea-pig; N=4, **p < 0.01) did it give?
The Mean collapse time was 176 ± 25 s.
